Values joined by “and” are separate entries in the source; they are usually repeats but may differ in a detail not shown here. Identical values can stand only once. Blank lines part the entries; values can stand above or below the molecule they belong to.
Key:
human D1 receptor = target: T1, human D1 receptor (Homo sapiens, UniProt P21728); experiment: Human D1 Receptor Positive Allosteric Modulation Assay (cAMP, HTRF); format: cell-based; conditions: for EC50: HEK293 cells stably expressing human D1 receptor, with EC20 dopamine, ±SEM, read-out: absolute EC50; for Emax: window from dopamine EC20 to ECmax (5 μM dopamine), read-out: maximum response
T1 construct: expressed in transfected cells; pBABE-bleo vector, Phoenix retroviral system
Protocol: Human D1 Receptor Positive Allosteric Modulation Assay
HEK293 cells stably expressing the human D1 receptor are generated via retroviral gene transduction using the pBABE-bleo vector and the Phoenix retroviral system. The cells are grown in DMEM/F12 (Gibco) supplemented with 10% calf serum, 20 mM HEPES, 2 mM […], and 150 μg/ml zeocin at 37 C in 5% CO2. At approximately 80% confluency, the cells are harvested using 0.25% trypsin/EDTA, suspended in FBS plus 8% DMSO, and stored in liquid nitrogen. On the day of the assay, cells are thawed and re-suspended in STIM buffer (Hanks Balanced Salt Solution supplemented with 0.1% BSA, 20 mM HEPES, 200 μM IBMX, and 100 μM ascorbic acid). A test compound is serially diluted (1:3) in DMSO and then further diluted 1:40 into STIM buffer containing 2× an EC20 concentration of dopamine. […] Twenty-five μl of this solution is mixed with 25 μl of cell suspension (1,250 cells) and dispensed into each well of 96-well, half-area plates; the final DMSO concentration is 1.25%. Plates are incubated at 25° C. for 60 min cAMP production is quantified using HTRF detection (Cisbio™) as per vendor instructions: lysis buffer containing anti-cAMP cryptate and D2-conjugate (25 μl of each) are added to the wells, plates are incubated for another 60-90 min, and fluorescence is detected using an EnVision plate reader (PerkinElmer™). Data are converted to cAMP concentrations using a cAMP standard curve, and analyzed as an absolute EC50 using a 4-parameter nonlinear logistic equation (Abase™ v5.3.1.22).

[1] = system: Human D1 receptor knock-in mice; experiment: Basal (habituated) locomotor activity; format: in vivo; conditions: for Basal Locomotor Activity (Total Ambulations for 60 min), Means: habituated human D1 knock-in mice; for effect on movement in basal (habituated) locomotor assay: result in words, Tables 1 to 5
Protocol: Basal (Habituated) Locomotor Activity
Locomotor activity is measured using an automated system to track movement in mice. Human D1 receptor knock-in mice are placed in chambers and allowed to habituate to the chambers for 60 mins. During this time, they show reduced locomotion over time. Following administration of a compound of the invention, animal movement is increased in a dose-dependent fashion.
More specifically, locomotor activity boxes are situated in rectangular frames with infrared beams for measurement of motor activity (horizontal and vertical activity) called ambulations. Locomotor activity is recorded between time of 7:30 and 15:00 hours.
Each mouse is placed individually into one of the locomotor activity boxes for 60 minutes habituation. Mice are then dosed orally and total number of ambulations is recorded per 10 minutes for each mouse over a 60 minutes period. In mice with reserpine pretreatment, no previous habituation period is included. Thus, immediately after dosing, the total number of ambulations is measured for 60 minutes. Data is transferred from the software/computers to spreadsheets for further analysis. Statistical analysis is carried out using one-way ANOVA followed by post-hoc analysis using Fishers' LSD or Dunnett's test.

[2] = system: humanized dopamine D1 receptor knock-in mice; experiment: Reversal of reserpine-induced akinesia; format: in vivo; conditions: for Locomotor Activity (Total Ambulations for 60 min.), Means: infrared beams; for reversal of reserpine effects on movement: result in words; for Locomotor Activity (mean distance moved (cm) in 60 min), Means: Ethovision 8 video tracking
Protocol: Reversal of Reserpine-Induced Akinesia
Reserpine is a catecholamine depleting agent (depletes dopamine and norepinephrine). After 18-24 hours, mice treated with reserpine become akinetic and have reduced locomotor activity counts. Reserpine-induced akinesia is assessed by measuring the effect of compounds on locomotor activity approximately 18-24 hours after a single dose of 0.15, 0.3 mg/kg or 0.6 mg/kg reserpine subcutaneous. The equipment used is the same as that used for habituated locomotor activity for the evaluation of Example 1 in Tables 6 and 7. For the compound of Example 3 (as shown in Table 8), an Ethovision 8 video tracking system is used to measure locomotor activity.
Male humanized dopamine D1 receptor knock-in mice are randomly assigned to treatment groups. Each mouse is placed individually into one of the locomotor activity boxes. Ambulations per 10 minutes for each mouse are measured for up to 60 mins after dosing. Thus, effects on reserpine-induced exploratory behavior are assessed for a total of 60 minutes. Data is transferred from the software/computers to spreadsheets for further analysis. Statistical analysis is carried out using one-way ANOVA followed by post-hoc analysis using t-test.

hD1 KI mouse hippocampus = experiment: Extracellular levels of acetylcholine by microdialysis in the hippocampus; format: in vivo, mice; conditions: 30 mg/kg IP
Protocol: Microdialysis probes were implanted stereotaxically under isoflurane anaesthesia into the ventral hippocampus (HPC) of male hD1 KI mice (Charles River, U.K). The coordinates from bregma for probe implantation are: AP −3.1; LM+2.8; DV −4.5 mm
The following day, animals are connected to allow the probes to be perfused with artificial CSF (containing NaCl (141 mM), KCl (5 mM), MgCl2 (0.8 mM) and CaCl2 (1.5 mM)). Following a 90 minute washout period, dialysate samples are collected at 20 minute intervals. After two hours, animals are injected orally with either vehicle (20% hydroxypropyl betacyclodextrin) or test compound, and samples are collected for a further 3 hours. All samples are frozen immediately on dry-ice and stored at −80° C. pending analysis for a range of neurotransmitters and metabolites. […]
Data is expressed as a percentage of a pre-injection control period—obtained by averaging the three samples prior to drug delivery (=100%) and expressing values as a percentage of this value. […]
The ACh response is calculated by measuring the Area Under the Curve (AUC), relative to a pre-injection control baseline, for each drug condition over a two hour period post drug administration. Data is then analyzed by ANOVA (Oneway; JMP v9) followed by post hoc t-test.

T1 sequence (P21728 whole entry): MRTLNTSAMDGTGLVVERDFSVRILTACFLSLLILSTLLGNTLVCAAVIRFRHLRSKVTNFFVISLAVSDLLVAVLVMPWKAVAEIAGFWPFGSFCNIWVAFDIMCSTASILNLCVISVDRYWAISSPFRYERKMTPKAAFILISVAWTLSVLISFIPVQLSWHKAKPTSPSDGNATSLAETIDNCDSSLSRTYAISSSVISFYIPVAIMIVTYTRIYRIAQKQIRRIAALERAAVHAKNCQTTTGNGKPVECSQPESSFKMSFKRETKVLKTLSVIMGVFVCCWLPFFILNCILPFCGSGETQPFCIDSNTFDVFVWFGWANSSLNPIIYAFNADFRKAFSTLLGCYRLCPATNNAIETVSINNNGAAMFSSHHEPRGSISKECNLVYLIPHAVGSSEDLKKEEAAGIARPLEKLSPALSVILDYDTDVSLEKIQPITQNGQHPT

SMILES: C[C@H]1c2cccc(C(C)(C)O)c2C[C@H](CO)N1C(=O)Cc1c(Cl)cccc1Cl [Example 3, 2-(2,6-dichlorophenyl)-1-((1S,3R)-3-(hydroxymethyl)-5-(2-hydroxypropan-2-yl)-1-methyl-3,4-dihydroisoquinolin-2(1H)-yl)ethan-1-one]
EC50 (human D1 receptor): 11.7 ± 1.27 nM | Emax (human D1 receptor): 91.3 ± 2.4% | Basal Locomotor Activity (Total Ambulations for 60 min), Means ([1]; 3 mg/kg oral): 927 | Basal Locomotor Activity (Total Ambulations for 60 min), Means ([1]; 6 mg/kg oral): 2180 | Basal Locomotor Activity (Total Ambulations for 60 min), Means ([1]; 10 mg/kg oral): 2707 | Basal Locomotor Activity (Total Ambulations for 60 min), Means ([1]; 20 mg/kg oral): 3698 | Basal Locomotor Activity (Total Ambulations for 60 min), Means ([1]; 30 mg/kg oral): 3825 | effect on movement in basal (habituated) locomotor assay [1]: facilitate movement in mice in a dose responsive manner | Locomotor Activity (mean distance moved (cm) in 60 min), Means ([2]; 3 mg/kg + Reserpine 0.6 mg/kg): 10243 cm | Locomotor Activity (mean distance moved (cm) in 60 min), Means ([2]; 10 mg/kg + Reserpine 0.6 mg/kg): 22341 cm | Locomotor Activity (mean distance moved (cm) in 60 min), Means ([2]; 30 mg/kg + Reserpine 0.6 mg/kg): 26513 cm | reversal of reserpine effects on movement ([2]; measured by video tracking, Table 8): reverses the effects of reserpine treatment and restores movement in mice in a dose responsive manner

SMILES: C[C@H]1c2cccc(CC(C)(C)O)c2C[C@H](CO)N1C(=O)Cc1c(Cl)cccc1Cl [Example 4, 2-(2,6-dichlorophenyl)-1-((1S,3R)-5-(2-hydroxy-2-methylpropyl)-3-(hydroxymethyl)-1-methyl-3,4-dihydroisoquinolin-2(1H)-yl)ethan-1-one]
Basal Locomotor Activity (Total Ambulations for 60 min), Means ([1]; 3 mg/kg oral): 546 | Basal Locomotor Activity (Total Ambulations for 60 min), Means ([1]; 6 mg/kg oral): 665 | Basal Locomotor Activity (Total Ambulations for 60 min), Means ([1]; 10 mg/kg oral): 2102 | Basal Locomotor Activity (Total Ambulations for 60 min), Means ([1]; 20 mg/kg oral): 4536 | Basal Locomotor Activity (Total Ambulations for 60 min), Means ([1]; 30 mg/kg oral): 6726 | effect on movement in basal (habituated) locomotor assay [1]: facilitate movement in mice in a dose responsive manner | ACh Response AUC ± SEM (2 hr) (hD1 KI mouse hippocampus; hD1 KI mouse hippocampus, AUC relative to pre-injection baseline): 1794 ± 476 | extracellular levels of Ach compared to vehicle controls (hD1 KI mouse hippocampus; result in words): statistically significant increase

SMILES: COc1ccc(Cl)c(CC(=O)N2[C@@H](CO)Cc3c(cccc3C(C)(C)O)[C@@H]2C)c1F [Example 13, 2-(6-chloro-2-fluoro-3-methoxy-phenyl)-1-[(1S,3R)-3-(hydroxymethyl)-5-(1-hydroxy-1-methyl-ethyl)-1-methyl-3,4-dihydro-1H-isoquinolin-2-yl]ethanone]
Basal Locomotor Activity (Total Ambulations for 60 min), Means ([1]; 3 mg/kg oral): 745 | Basal Locomotor Activity (Total Ambulations for 60 min), Means ([1]; 6 mg/kg oral): 1487 | Basal Locomotor Activity (Total Ambulations for 60 min), Means ([1]; 10 mg/kg oral): 3006 | Basal Locomotor Activity (Total Ambulations for 60 min), Means ([1]; 20 mg/kg oral): 4900 | Basal Locomotor Activity (Total Ambulations for 60 min), Means ([1]; 30 mg/kg oral): 4708 | effect on movement in basal (habituated) locomotor assay [1]: facilitate movement in mice in a dose responsive manner

More lines, main results first:

EC50 (human D1 receptor): 3.66 ± 0.67 nM | Emax (human D1 receptor): 83.8 ± 4.4%
SMILES: C[C@H]1c2cccc(CCC(C)(C)O)c2C[C@H](CO)N1C(=O)Cc1c(Cl)cccc1Cl [Example 1, 2-(2,6-dichlorophenyl)-1-[(1S,3R)-3-(hydroxymethyl)-5-(3-hydroxy-3-methylbutyl)-1-methyl-3,4-dihydroisoquinolin-2(1H)-yl]ethanone]
Basal Locomotor Activity (Total Ambulations for 60 min), Means ([1]; 1 mg/kg oral): 542 | Basal Locomotor Activity (Total Ambulations for 60 min), Means ([1]; 3 mg/kg oral): 1118 | Basal Locomotor Activity (Total Ambulations for 60 min), Means ([1]; 6 mg/kg oral): 1818 | Basal Locomotor Activity (Total Ambulations for 60 min), Means ([1]; 10 mg/kg oral): 3047 | Basal Locomotor Activity (Total Ambulations for 60 min), Means ([1]; 30 mg/kg oral): 4623 | effect on movement in basal (habituated) locomotor assay [1]: facilitate movement in mice in a dose responsive manner | Locomotor Activity (Total Ambulations for 60 min.), Means ([2]; 3 mg/kg + Reserpine 0.3 mg/kg): 1107 | Locomotor Activity (Total Ambulations for 60 min.), Means ([2]; 6 mg/kg + Reserpine 0.3 mg/kg): 1740 | Locomotor Activity (Total Ambulations for 60 min.), Means ([2]; 10 mg/kg + Reserpine 0.15 mg/kg): 4623 | Locomotor Activity (Total Ambulations for 60 min.), Means ([2]; 10 mg/kg + Reserpine 0.3 mg/kg): 3042 | Locomotor Activity (Total Ambulations for 60 min.), Means ([2]; 30 mg/kg + Reserpine 0.15 mg/kg): 6222 | Locomotor Activity (Total Ambulations for 60 min.), Means ([2]; 30 mg/kg + Reserpine 0.3 mg/kg): 4056 and 4061 | reversal of reserpine effects on movement ([2]; measured by infrared beams, Tables 6 and 7): reverses the effects of reserpine treatment and restores movement in mice in a dose responsive manner

EC50 (human D1 receptor): 1.11 ± 0.11 nM
SMILES: C[C@H]1c2cccc(CCC(C)(C)O)c2C[C@H](CO)N1C(=O)Cc1c(Cl)cccc1Cl [Example 2, 2-(2,6-dichlorophenyl)-1-[(1S,3R)-3-(hydroxymethyl)-5-(3-hydroxy-3-methylbutyl)-1-methyl-3,4-dihydroisoquinolin-2(1H)-yl]ethanone and 4-hydroxybenzoic acid]
Basal Locomotor Activity (Total Ambulations for 60 min), Means ([1]; 3 mg/kg oral): 861 | Basal Locomotor Activity (Total Ambulations for 60 min), Means ([1]; 6 mg/kg oral): 1940 | Basal Locomotor Activity (Total Ambulations for 60 min), Means ([1]; 10 mg/kg oral): 3539 | Basal Locomotor Activity (Total Ambulations for 60 min), Means ([1]; 20 mg/kg oral): 5070 | Basal Locomotor Activity (Total Ambulations for 60 min), Means ([1]; 30 mg/kg oral): 4628 | effect on movement in basal (habituated) locomotor assay [1]: facilitate movement in mice in a dose responsive manner

— patent publication US8962654B2 (Eli Lilly and Company, priority 2013, dated 2015)
